Measurements: patent publication US9315859B2, “DDAO compounds as fluorescent reference standards” (LIFE TECHNOLOGIES CORPORATION, priority 2010, dated 2016)

Columns and labels:
Format in all cases: physicochemical
[1] = Resilience to harsh oxidation: free dye with benzoyl peroxide, fluorescence decay; settings: about 1 μM free dye in Tris-EDTA buffer/MeOH, 5 μl 0.5M benzoyl peroxide in acetonitrile per 1 ml, read at 5 minute intervals, compared with ROX
Procedure: Regarding chemical stability, DDAO congeners appear to have resilience under various conditions, such as oxidation, photo-degradation, and the like. For example, regarding resilience to harsh oxidation, DDAO, Sulfo-DDAO, and ROX were each suspended as free dyes in a solution of 1.4 of Tris-EDTA buffer (1× stock concentration) in MeOH at a concentration of approximately 1 μM. Five μl of 0.5M benzoyl peroxide in acetonitrile was added to 1 ml of the dye composition in a fluorimeter cuvette. Fluorescence emission intensity was measured at each dye's emission maximum immediately, and then at 5 minute intervals. A first-order exponential curve was fit to the data to calculate the decay rate for each dye. FIG. 7 is a graph showing the results of that experiment. […] As such, the reference dyes of formula (I) can be used in assays in which the assay components might come in contact with oxidants.

[2] = Stability of reference dye incubated in TaqMan Universal PCR Master Mix, judged by Ct values; settings: room temperature in TaqMan Universal PCR Master Mix, 1 day to 4 weeks; consistent Ct values
Procedure: FIG. 11 depicts the stability of Sulfo-DDAO in a master mix, and incubated with various additional additives. Sulfo-DDAO was incubated in TaqMan® Universal PCR Master Mix at room temperature for 1 day, 1 week, 2 weeks, or 4 weeks. At each designated time point, fixed quantities of various, different target polynucleotides and various dye-labeled TaqMan® probes, were added. The target/probe mixtures were PCR amplified in a 96 well plate and the signals recorded after each amplification cycle to generate an amplification count from which a Ct value was determined for each target/probe mixture, using Sulfo-DDAO as a reference dye. FIG. 11 is a graph showing the results of that experiment, with the Ct values plotted for each time point. The Sulfo-DDAO signal was stable at room temperature in TaqMan® Universal PCR Master Mix for up to 4 weeks, as evidenced by the consistent Ct values obtained at different incubation times for the different target/probe mixtures, using Sulfa-DDAO as a reference dye.

[3] = Normalized fluorescent emission as a function of temperature; settings: signals normalized to the 94° C. data point; compared with 6-FAM and ROX
Procedure: FIG. 6 depicts a graph of normalized fluorescent emission as a traction of temperature for Sulfo-DDAO in comparison to a reporter dye, 6-FAM, as well as a reference dye, ROX. Given the difference in brightness of the dyes shown, each data point for each curve was adjusted using an internal reference point taken from the 94° C. data point for that data set. In that regard, the fluorescence signals are normalized to give equal intensities at 94 C so that their relative changes with temperature can be easily compared. […] This attribute may be useful when, for example, dye calibration they be one at a different temperature from a run temperature, or could be useful for normalizing experimental variations as previously discussed.

Row | resilience to oxidation (fluorescence emission decay) [1] | stability of reference dye signal in master mix [2] | stability of fluorescence emission across temperature [3] | Compound
1 | show resilience to oxidation | – | – | CC1(C)C2=C(Cl)C(=O)C(Cl)=CC2=Nc2ccc(O)cc21 [DDAO, 1,3-dichloro-7-hydroxy-9,9-dimethylacridin-2(9H)-one]
2 | show resilience to oxidation | stable | fairly stable | CC1(C)C2=C(Cl)C(=O)C(Cl)=CC2=Nc2cc(S(=O)(=O)O)c(O)cc21 [Sulfo-DDAO, 6,8-dichloro-2-hydroxy-9,9-dimethyl-7-oxo-7,9-dihydroacridine-3-sulfonic acid]
